In ChEMBL document CHEMBL5705899 (Biochem J, 2014):
Active and inactive are the calls of the source. The calls are words filed in the database; no cut-off is given here.

Legend:
[1] = target: Protein kinase C iota type (Homo sapiens) (UniProt P41743); experiment: Inhibition of human PKCiota at 1 uM using 3xChocktide-PKC as substrate in presence of 33P-ATP by ProQinase assay
[2] = target: Discoidin domain-containing receptor 2 (Homo sapiens) (UniProt Q16832); experiment: Inhibition of recombinant human N-terminal GST-tagged DDR2 (467 to 854 residues) expressed in baculovirus infected Sf21 cells assessed as remaining activity at 1 uM using KKSRGDYMTMQIG as substrate incubated for 30 mins in presence of [gamma-33P]ATP by filter binding method relative to control
[3] = target: Phosphatidylinositol 4-phosphate 3-kinase C2 domain-containing subunit alpha (Homo sapiens, UniProt O00443); experiment: Inhibition of human PIK3C2A using PIP2/PS as substrate by ADP-Glo assay
[4] = target: Epidermal growth factor receptor (Homo sapiens) (UniProt P00533); experiment: Inhibition of human EGFR at 1 uM using RBER-CHKtide as substrate in presence of 33P-ATP by ProQinase assay
[5] = target: SRSF protein kinase 1 (Homo sapiens) (UniProt Q96SB4); experiment: Inhibition of recombinant human N-terminal GST-tagged SRPK1 (2 to 654 residues) expressed in Escherichia coli assessed as remaining activity at 1 uM using RSRSRSRSRSRSRSR as substrate incubated for 30 mins in presence of [gamma-33P]ATP by filter binding method relative to control
[6] = target: Tyrosine-protein kinase FRK (Homo sapiens) (UniProt P42685); experiment: Inhibition of human FRK at 1 uM using PolyEY as substrate in presence of 33P-ATP by ProQinase assay
[7] = target: Myotonin-protein kinase (Homo sapiens) (UniProt Q09013); experiment: Inhibition of human DMPK at 1 uM using RBER-CHKtide as substrate in presence of 33P-ATP by ProQinase assay
[8] = target: Ephrin type-A receptor 3 (Homo sapiens) (UniProt P29320); experiment: Inhibition of human EPHA3 at 1 uM using polyEY as substrate in presence of 33P-ATP by ProQinase assay
[9] = target: Serine/threonine-protein kinase Nek2 (Homo sapiens) (UniProt P51955); experiment: Inhibition of recombinant human N-terminal His6-tagged NEK2A (1 to 445 residues) expressed in baculovirus infected Sf21 cells assessed as remaining activity at 1 uM using RFRRSRRMI as substrate incubated for 30 mins in presence of [gamma-33P]ATP by filter binding method relative to control
[10] = target: AMPK alpha1/beta2/gamma1 (Homo sapiens) (UniProt O43741+P54619+Q13131); experiment: Inhibition of recombinant N-terminal His6-tagged human AMPKalpha1 (11 to 559 residues)/AMPKbeta2 (1 to 272 residues)/AMPKgamma1 (1 to 331 residues) expressed in baculovirus infected Sf21 cells assessed as remaining activity at 1 uM using SAMS as substrate incubated for 30 mins in presence of [gamma-33P]ATP relative to control
[11] = target: Phosphatidylinositol 3-kinase C2 domain-containing subunit gamma (Homo sapiens, UniProt O75747); experiment: Inhibition of human PIK3C2G using PIP2/PS as substrate by ADP-Glo assay
[12] = target: Dual specificity protein kinase CLK1 (Homo sapiens) (UniProt P49759); experiment: Inhibition of human CLK1 at 1 uM using autophos as substrate in presence of 33P-ATP by ProQinase assay
[13] = target: Death-associated protein kinase 1 (Homo sapiens) (UniProt P53355); experiment: Inhibition of recombinant human N-terminal GST-tagged DAPK1 (1 to 363 residues) expressed in Escherichia coli assessed as remaining activity at 1 uM using KKLNRTLSFAEPG as substrate incubated for 30 mins in presence of [gamma-33P]ATP by filter binding method relative to control
[14] = target: Phosphorylase b kinase gamma catalytic chain, liver/testis isoform (Homo sapiens) (UniProt P15735); experiment: Inhibition of human PHKG2 at 1 uM using RBER-CHKtide as substrate in presence of 33P-ATP by ProQinase assay
[15] = target: SRSF protein kinase 3 (Homo sapiens) (UniProt Q9UPE1); experiment: Inhibition of human STK23 at 1 uM using RBER-CHKtide as substrate in presence of 33P-ATP by ProQinase assay
[16] = target: Homeodomain-interacting protein kinase 3 (Homo sapiens) (UniProt Q9H422); experiment: Inhibition of human HIPK3 at 1 uM using RBER-CHKtide as substrate in presence of 33P-ATP by ProQinase assay
[17] = target: Interleukin-1 receptor-associated kinase 1 (Homo sapiens) (UniProt P51617); experiment: Inhibition of recombinant human N-terminal GST-tagged IRAK1 (1 to 712 residues) expressed in baculovirus infected Sf21 cells assessed as remaining activity at 1 uM using MBP as substrate incubated for 30 mins in presence of [gamma-33P]ATP by filter binding method relative to control
[18] = target: Interleukin-1 receptor-associated kinase 1 (Homo sapiens) (UniProt P51617); experiment: Inhibition of human IRAK1 at 1 uM using RB-CTF as substrate in presence of 33P-ATP by ProQinase assay
[19] = target: G protein-coupled receptor kinase 3 (Homo sapiens) (UniProt P35626); experiment: Inhibition of human GRK3 at 1 uM using casein as substrate in presence of 33P-ATP by ProQinase assay
[20] = target: Serine/threonine-protein kinase 26 (Homo sapiens) (UniProt Q9P289); experiment: Inhibition of recombinant human N-terminal His6-tagged MST4 (1 to 416 residues) expressed in baculovirus infected Sf21 cells assessed as remaining activity at 1 uM using MBP as substrate incubated for 30 mins in presence of [gamma-33P]ATP by filter binding method relative to control
[21] = target: Diacylglycerol kinase zeta (Homo sapiens) (UniProt Q13574); experiment: Inhibition of recombinant human N-terminal His6-tagged DGKzeta (1 to 929 residues) expressed in baculovirus expression system at 1 uM using diacyl-glycerol as substrate incubated for 40 mins by ADP-Glo assay
[22] = target: Mitogen-activated protein kinase kinase kinase 11 (Homo sapiens) (UniProt Q16584); experiment: Inhibition of human MAP3K11 at 1 uM using MBP as substrate in presence of 33P-ATP by ProQinase assay
[23] = target: Phosphorylase b kinase gamma catalytic chain, skeletal muscle/heart isoform (Homo sapiens) (UniProt Q16816); experiment: Inhibition of human PHKG1 at 1 uM using 3xChocktide-PKC as substrate in presence of 33P-ATP by ProQinase assay
[24] = target: Serine/threonine-protein kinase BRSK1 (Homo sapiens) (UniProt Q8TDC3); experiment: Inhibition of human BRSK1 at 1 uM using RBER-CHKtide as substrate in presence of 33P-ATP by ProQinase assay
[25] = target: Serine/threonine-protein kinase mTOR (Homo sapiens) (UniProt P42345); experiment: Inhibition of human mTOR at 1 uM using casein as substrate in presence of 33P-ATP by ProQinase assay
[26] = target: DNA-dependent protein kinase catalytic subunit (Homo sapiens) (UniProt P78527); experiment: Inhibition of human DNPK1 at 1 uM using RBER-GSK3 as substrate in presence of 33P-ATP by ProQinase assay

Sequence of Interleukin-1 receptor-associated kinase 1 (Homo sapiens) (P51617 whole entry, looked up, the tested form may be a part): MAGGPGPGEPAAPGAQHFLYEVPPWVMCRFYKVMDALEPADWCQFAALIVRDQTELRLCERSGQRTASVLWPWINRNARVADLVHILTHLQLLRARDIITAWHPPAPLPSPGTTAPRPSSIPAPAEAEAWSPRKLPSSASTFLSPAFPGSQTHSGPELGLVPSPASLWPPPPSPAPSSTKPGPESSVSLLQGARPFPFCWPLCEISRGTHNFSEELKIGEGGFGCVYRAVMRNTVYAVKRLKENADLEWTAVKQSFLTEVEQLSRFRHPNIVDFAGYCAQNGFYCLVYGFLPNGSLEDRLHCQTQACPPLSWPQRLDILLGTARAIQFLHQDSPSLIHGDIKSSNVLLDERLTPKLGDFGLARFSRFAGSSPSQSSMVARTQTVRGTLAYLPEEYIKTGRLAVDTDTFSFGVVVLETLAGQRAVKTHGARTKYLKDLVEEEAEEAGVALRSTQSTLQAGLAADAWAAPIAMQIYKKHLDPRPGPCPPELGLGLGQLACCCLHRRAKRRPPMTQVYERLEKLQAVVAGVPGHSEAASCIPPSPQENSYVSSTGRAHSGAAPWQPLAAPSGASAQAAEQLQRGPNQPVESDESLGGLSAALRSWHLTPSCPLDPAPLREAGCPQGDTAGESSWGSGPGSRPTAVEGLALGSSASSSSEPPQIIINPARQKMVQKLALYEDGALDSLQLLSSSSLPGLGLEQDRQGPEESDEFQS
Sequence of Protein kinase C iota type (Homo sapiens) (P41743 whole entry, the tested form may be a part): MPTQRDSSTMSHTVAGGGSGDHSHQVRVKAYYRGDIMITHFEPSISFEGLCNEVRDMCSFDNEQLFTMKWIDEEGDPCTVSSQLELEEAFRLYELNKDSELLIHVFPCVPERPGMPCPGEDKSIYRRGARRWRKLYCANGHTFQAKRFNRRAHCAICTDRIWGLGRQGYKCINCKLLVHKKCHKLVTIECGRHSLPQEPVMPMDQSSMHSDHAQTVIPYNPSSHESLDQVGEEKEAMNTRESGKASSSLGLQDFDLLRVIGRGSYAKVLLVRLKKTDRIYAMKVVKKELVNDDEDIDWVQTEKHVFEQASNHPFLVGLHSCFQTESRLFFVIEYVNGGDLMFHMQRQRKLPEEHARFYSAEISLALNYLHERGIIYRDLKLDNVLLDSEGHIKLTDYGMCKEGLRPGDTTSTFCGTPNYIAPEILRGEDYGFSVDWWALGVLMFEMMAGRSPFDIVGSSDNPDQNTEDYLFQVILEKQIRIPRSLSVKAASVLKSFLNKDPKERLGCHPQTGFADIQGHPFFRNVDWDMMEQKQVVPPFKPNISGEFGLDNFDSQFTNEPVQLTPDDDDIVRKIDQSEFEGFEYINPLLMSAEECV
Sequence of Death-associated protein kinase 1 (Homo sapiens) (P53355 whole entry, looked up, the tested form may be a part, canonical isoform): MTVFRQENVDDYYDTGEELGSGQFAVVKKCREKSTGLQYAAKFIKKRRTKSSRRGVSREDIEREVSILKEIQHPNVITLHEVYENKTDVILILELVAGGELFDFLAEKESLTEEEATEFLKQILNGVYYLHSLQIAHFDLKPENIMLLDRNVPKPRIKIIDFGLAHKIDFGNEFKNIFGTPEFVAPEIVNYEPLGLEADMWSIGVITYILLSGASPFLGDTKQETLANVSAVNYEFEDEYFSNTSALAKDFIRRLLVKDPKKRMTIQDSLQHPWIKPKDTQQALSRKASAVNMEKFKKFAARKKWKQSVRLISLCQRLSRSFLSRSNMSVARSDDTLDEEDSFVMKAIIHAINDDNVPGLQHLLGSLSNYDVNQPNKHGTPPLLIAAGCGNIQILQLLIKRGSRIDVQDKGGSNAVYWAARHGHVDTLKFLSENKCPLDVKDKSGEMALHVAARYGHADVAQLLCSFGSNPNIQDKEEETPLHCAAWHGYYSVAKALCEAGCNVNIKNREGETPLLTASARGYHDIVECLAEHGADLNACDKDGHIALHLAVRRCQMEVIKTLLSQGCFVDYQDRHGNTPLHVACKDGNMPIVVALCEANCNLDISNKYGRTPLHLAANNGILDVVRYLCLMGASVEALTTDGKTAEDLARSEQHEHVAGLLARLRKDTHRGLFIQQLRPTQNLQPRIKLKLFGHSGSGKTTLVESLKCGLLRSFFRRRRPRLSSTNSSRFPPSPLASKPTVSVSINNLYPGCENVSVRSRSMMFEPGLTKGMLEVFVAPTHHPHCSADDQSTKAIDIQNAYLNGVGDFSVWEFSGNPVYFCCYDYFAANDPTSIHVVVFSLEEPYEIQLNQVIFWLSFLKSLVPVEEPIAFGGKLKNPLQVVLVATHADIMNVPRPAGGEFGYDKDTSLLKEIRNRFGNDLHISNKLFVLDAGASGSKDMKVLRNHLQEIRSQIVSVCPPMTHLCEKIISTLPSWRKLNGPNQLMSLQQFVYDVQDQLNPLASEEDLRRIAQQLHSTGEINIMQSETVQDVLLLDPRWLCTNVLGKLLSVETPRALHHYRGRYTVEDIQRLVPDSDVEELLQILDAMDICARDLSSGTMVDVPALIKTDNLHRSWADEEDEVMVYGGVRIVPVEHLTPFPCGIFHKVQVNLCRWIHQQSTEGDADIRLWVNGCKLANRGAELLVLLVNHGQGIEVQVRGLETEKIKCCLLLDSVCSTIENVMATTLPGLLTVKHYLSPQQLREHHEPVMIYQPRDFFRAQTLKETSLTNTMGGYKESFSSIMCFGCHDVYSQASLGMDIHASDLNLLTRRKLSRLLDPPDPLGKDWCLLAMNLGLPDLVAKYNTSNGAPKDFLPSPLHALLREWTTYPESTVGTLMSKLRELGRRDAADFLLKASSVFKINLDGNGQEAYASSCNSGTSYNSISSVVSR
Sequence of Ephrin type-A receptor 3 (Homo sapiens) (P29320 whole entry, the tested form may be a part): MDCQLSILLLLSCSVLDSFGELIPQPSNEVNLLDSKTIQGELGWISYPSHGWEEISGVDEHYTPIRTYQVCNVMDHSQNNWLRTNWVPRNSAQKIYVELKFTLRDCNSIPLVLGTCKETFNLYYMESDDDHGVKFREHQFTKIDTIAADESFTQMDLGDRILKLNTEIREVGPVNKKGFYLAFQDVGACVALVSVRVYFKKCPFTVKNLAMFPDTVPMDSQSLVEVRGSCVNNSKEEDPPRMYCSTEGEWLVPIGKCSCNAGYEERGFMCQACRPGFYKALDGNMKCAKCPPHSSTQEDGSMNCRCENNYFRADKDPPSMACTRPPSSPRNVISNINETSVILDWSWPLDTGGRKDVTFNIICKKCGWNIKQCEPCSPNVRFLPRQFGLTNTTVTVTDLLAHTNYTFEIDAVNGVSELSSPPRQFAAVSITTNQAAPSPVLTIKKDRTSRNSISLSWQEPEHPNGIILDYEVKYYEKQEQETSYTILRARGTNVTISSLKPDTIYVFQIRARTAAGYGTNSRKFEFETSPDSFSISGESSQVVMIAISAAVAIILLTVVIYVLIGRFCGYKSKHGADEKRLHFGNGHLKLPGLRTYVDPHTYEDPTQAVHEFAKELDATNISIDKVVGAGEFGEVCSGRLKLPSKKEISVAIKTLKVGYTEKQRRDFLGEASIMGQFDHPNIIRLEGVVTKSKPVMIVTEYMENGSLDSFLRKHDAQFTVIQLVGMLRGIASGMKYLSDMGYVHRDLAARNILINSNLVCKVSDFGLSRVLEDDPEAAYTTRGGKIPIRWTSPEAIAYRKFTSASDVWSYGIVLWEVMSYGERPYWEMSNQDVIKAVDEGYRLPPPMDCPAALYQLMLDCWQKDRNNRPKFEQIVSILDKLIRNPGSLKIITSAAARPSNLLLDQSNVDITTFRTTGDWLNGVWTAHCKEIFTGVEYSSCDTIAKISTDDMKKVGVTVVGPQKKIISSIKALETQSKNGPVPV
Sequence of Serine/threonine-protein kinase BRSK1 (Homo sapiens) (Q8TDC3 whole entry): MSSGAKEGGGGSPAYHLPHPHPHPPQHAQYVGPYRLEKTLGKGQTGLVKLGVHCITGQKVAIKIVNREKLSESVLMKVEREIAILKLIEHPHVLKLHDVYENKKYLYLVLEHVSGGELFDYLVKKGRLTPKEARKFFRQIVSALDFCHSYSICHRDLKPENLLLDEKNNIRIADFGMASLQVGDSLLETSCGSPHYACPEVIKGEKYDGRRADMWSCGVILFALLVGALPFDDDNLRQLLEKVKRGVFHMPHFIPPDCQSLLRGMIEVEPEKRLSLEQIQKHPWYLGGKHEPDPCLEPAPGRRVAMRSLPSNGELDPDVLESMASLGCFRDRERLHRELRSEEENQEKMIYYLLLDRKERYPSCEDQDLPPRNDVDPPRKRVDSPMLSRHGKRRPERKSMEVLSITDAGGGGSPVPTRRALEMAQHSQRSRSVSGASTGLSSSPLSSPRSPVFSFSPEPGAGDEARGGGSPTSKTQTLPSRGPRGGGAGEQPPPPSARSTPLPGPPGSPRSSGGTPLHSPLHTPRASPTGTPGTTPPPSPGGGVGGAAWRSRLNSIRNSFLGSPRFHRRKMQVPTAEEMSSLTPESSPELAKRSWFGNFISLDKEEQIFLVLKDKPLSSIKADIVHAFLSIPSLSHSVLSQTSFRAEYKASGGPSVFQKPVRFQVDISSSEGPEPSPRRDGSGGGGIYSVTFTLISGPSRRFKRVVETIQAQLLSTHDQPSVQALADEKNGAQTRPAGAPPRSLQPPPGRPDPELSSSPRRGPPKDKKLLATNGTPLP
Sequence of Dual specificity protein kinase CLK1 (Homo sapiens) (P49759 whole entry, looked up, the tested form may be a part): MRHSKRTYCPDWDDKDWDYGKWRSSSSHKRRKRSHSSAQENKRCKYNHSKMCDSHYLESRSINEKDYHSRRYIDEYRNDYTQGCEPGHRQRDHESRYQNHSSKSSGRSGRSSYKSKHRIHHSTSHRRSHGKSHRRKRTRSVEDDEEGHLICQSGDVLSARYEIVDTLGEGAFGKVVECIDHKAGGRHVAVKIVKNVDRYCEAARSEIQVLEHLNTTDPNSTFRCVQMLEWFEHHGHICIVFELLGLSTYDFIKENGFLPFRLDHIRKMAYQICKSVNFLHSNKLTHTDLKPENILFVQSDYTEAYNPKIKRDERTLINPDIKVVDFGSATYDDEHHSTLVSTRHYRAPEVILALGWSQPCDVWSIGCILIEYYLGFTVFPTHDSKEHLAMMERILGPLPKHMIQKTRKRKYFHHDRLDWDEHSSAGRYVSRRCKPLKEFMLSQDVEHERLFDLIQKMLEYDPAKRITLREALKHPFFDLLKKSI

For `CC(C)(O)CNc1ncc(-c2ccnc(Nc3ccnc(Cl)c3)n2)c(CC2CC2)n1`, which inhibition [1] is on record?
Its inhibition is “inactive”.

What about the Activity [2] of the same molecule?
The Activity was 111%.

What about the IC50 [3] of the same molecule?
The IC50 was > 10 µM.

And the inhibition [4]?
The inhibition was “inactive”.

What about the Activity [5] of the same molecule?
Its Activity is 111%.

What about the inhibition [6] of the same molecule?
The inhibition was “inactive”.

And the inhibition [7]?
Its inhibition is “inactive”.

What about the inhibition [8] of the same molecule?
The inhibition was “inactive”.

And the Activity [9]?
The Activity was 103%.

What about the Activity [10] of the same molecule?
The Activity was 96%.

What about the IC50 [11] of the same molecule?
The IC50 was > 10 µM.

And the inhibition [12]?
Its inhibition is “inactive”.

What about the Activity [13] of the same molecule?
The Activity was 96%.

What about the inhibition [14] of the same molecule?
The inhibition was “inactive”.

And the inhibition [15]?
Its inhibition is “inactive”.

What about the inhibition [16] of the same molecule?
Its inhibition is “inactive”.

What about the Activity [17] of the same molecule?
The Activity was 112%.

And the inhibition [18]?
The inhibition was “inactive”.

What about the inhibition [19] of the same molecule?
Its inhibition is “inactive”.

What about the Activity [20] of the same molecule?
The Activity was 108%.

What about the inhibition [21] of the same molecule?
Its inhibition is “inactive”.

What about the inhibition [22] of the same molecule?
Its inhibition is “inactive”.

What about the inhibition [23] of the same molecule?
The inhibition was “inactive”.

And the inhibition [24]?
The inhibition was “inactive”.

And the inhibition [25]?
The inhibition was “inactive”.

And the inhibition [26]?
Its inhibition is “inactive”.
